Results: patent US20260241021A1 (priority 2023, published 2026)
pIC50: −log10 of the molar value.

Experiments:
[1] = biological target: cathepsin B (Homo sapiens, UniProt P07858); experiment: Digestion and exatecan release of linker-payloads by cathepsin B cleavage (LC-UV); type: in vitro ADME; conditions: 5 μg linker-payload, 10 μg/mL activated cathepsin B, 37° C., sampled for 24 hours
Procedure: This study was conducted to evaluate how the DCBO and BCN in the linker-payloads would affect drug release. The study also included the linker-payloads with the two-amino acid spacer “GG” in the digestion comparison. The study was evaluated by digesting the linker-payloads using cathepsin B and quantifying the released exatecan by LC-UV. To perform exatecan release test by cathepsin B cleavage, 5 μg of the linker-payloads were treated with 10 μg/mL of activated cathepsin B in digestion buffer for payload cleavage at 37° C. The reaction mixture was sampled every two hours for 24 hours, and the amounts of released exatecan and residual linker-payload were analyzed by LC-UV. A C18 column (Symmetry 5 μm, 2.1×150 mm Waters) was applied for this analysis. Samples were eluted with ACN/water gradient at a flow rate of 0.5 mL/min, and the chromatogram was monitored at 263 nm.

[2] = tested on: SKBR-3 breast cancer cells; experiment: Cytotoxicity of linker-payloads (CellTiter-Glo, six days); type: cell-based, human; conditions: SKBR-3, six days
Source text: Human SKBR-3 breast cancer cells (ATCC, HTB-30) were used in this study. […] The IC50 data for the different linker payloads were similar.

[3] = tested on: Capan-1 pancreatic cancer cells; conditions: Capan-1, 6 days
Procedure: (§1) Tumor cells (2×10^3 cells/well) were seeded in 96 well plates and treated with ADCs for 6 days. CellTiter-Glo® Reagent (Cat. G7572, Promega) was prepared by adding CellTiter-Glo® Buffer into lyophilized CellTiter-Glo® Substrate. Reconstituted CellTiter-Glo® Reagent was added into the culture medium with cells at 1:1 ratio after treatment for 6 days. The plate was placed on an orbital shaker for 2 minutes to induce cell lysis and then incubated at room temperature for 10 minutes before recording the luminescent signals by Luminometer. The viability of each treated sample was compared to the non-treated control. The IC50 of each ADC was calculated by Prism.

[4] = tested on: NCI-N87 gastric cells; conditions: NCI-N87, 6 days
Procedure: as §1

| Compound | percentage of linker-payloads existed (% linker-payload) after cathepsin B cleavage reaction [1] [%] | pIC50 ([2]; Homo sapiens, SK-BR-3, 144 h) | amount of released exatecan [1] [%] | pIC50 [2] | pIC50 [3] | pIC50 [4] |
| --- | --- | --- | --- | --- | --- | --- |
| CC[C@@]1(O)C(=O)OCc2c1cc1n(c2=O)Cc2c-1nc1cc(F)c(C)c3c1c2[C@@H](NC(=O)OC(C(=O)NCCOCCOCCOCCOCCOCCOCCOCCOCCOCCOCCOCCOCCOCCOCCOCCOCCOCCOCCOCCOCCOCCOCCOCCOC)c1ccc(NC(=O)[C@H](C)NC(=O)[C@@H](NC(=O)CCC(=O)N2Cc4ccccc4C#Cc4ccccc42)C(C)C)cc1)CC3 (mixture of isomers) [DL-5, DBCO-VA-Hydra-PAB-PEG24-Exatecan] | 75 | 6.61 | – | – | – | – |
| CC[C@@]1(O)C(=O)OCc2c1cc1n(c2=O)Cc2c-1nc1cc(F)c(C)c3c1c2[C@@H](NC(=O)OC(C(=O)NCCOCCOCCOCCOCCOCCOCCOCCOCCOCCOCCOCCOCCOCCOCCOCCOCCOCCOCCOCCOCCOCCOCCOCCOC)c1ccc(NC(=O)[C@H](C)NC(=O)[C@@H](NC(=O)OC[C@@H]2[C@@H]4CCC#CCC[C@@H]42)C(C)C)cc1)CC3 (mixture of isomers) [DL-6, BCN-VA-Hydra-PAB-PEG24-Exatecan] | 14 | 6.65 | – | – | – | – |
| CC[C@@]1(O)C(=O)OCc2c1cc1n(c2=O)Cc2c-1nc1cc(F)c(C)c3c1c2[C@@H](NC(=O)OC(C(=O)NCCOCCOCCOCCOCCOCCOCCOCCOCCOCCOCCOCCOCCOCCOCCOCCOCCOCCOCCOCCOCCOCCOCCOCCOC)c1ccc(NC(=O)[C@H](C)NC(=O)[C@@H](NC(=O)CNC(=O)CNC(=O)CCC(=O)N2Cc4ccccc4C#Cc4ccccc42)C(C)C)cc1)CC3 (mixture of isomers) [DL-7, DBCO-GGVA-Hydra-PAB-PEG24-Exatecan] | 66 | 7.01 | – | – | – | – |
| BCN-GGVA-Hydra-PAB-PEG24-Exatecan [DL-8] | 4 | – | 52.6 | 6.86 | – | – |
| TX05-DBCO-PEG24-Exatecan ADC [ADC-4] | – | – | – | – | 7.14 | 8.26 |
| TX05-MCCA-PEG24-Exatecan ADC [ADC-3] | – | – | – | – | 7.19 | 8.54 |
